Measured values reported in patent publication US20160038392A1, “COMPOSITIONS COMPRISING PAULOWNIN AND/OR PAULOWNIA EXTRACTS AND USES THEREOF” (Johnson & Johnson Consumer Inc., priority 2010, published 2016).
≈ marks a conversion by molar mass, not a printed value.

Assays:
[1] = test system: NF-κB promoter activity in H9c2 cells; test: NF-κB Inhibition Assay (NF-κB promoter luciferase, TNFα stimulated); type: cell-based; conditions: Rattus norvegicus
Protocol: The NF-κB promoter assay is conducted as follows: rat cardiac myoblasts H9c2 cells were purchased from ATCC (Manassas, Va.). Cultures were maintained in Dulbecco's modified Eagle's medium (DMEM, Invitrogen Life Technologies, Carlsbad, Calif.) supplemented with 10% fetal bovine serum, 100 units/ml penicillin, and 50 μg/ml streptomycin (Invitrogen life technologies, Carlsbad, Calif.). Typically, 1×10^4 cells grown in 96-well plates were transiently transfected with 0.45 μg total DNA per well using Lipofectamine 2000 (Invitrogen life technologies, Carlsbad, Calif.). In all transfections, a construct with the thymidine kinase promoter and the Renilla luciferase reporter gene (pRL-TK, Promega, Madison, Wis.) was included as an internal control in addition to the luciferase promoter. One day after transfection, cells were treated with the extracts at indicated concentrations and stimulated with 100 ng/mL of Tumor Necrosis Factor-a (TNFα, Sigma-Aldrich, St Louis, Mo.) for approximately 24 hours before they were lysed for luciferase assays, using Dual-Luciferase Reporter System from Promega (Madison, Wis.), following manufacturer's protocol. Briefly, the firefly luciferase activity was measured first (representing NF-κB promoter activity), followed by the renilla luciferase (internal control), using luminometer LMAX, from Molecular Devices (Sunnyvale, Calif.). […]

[2] = test system: MatTek's MelanoDerm skin epidermal equivalent tissues (MEL-300-B; NHEK and NHM); test: Skin Epidermal Equivalents Model as a Skin Lightening Test (ΔL); type: cell-based, human; conditions: topical daily 8 days, measured day 9
Text: Skin epidermal equivalent tissues are available commercially from MatTek's MelanoDerm™ System and were used for the following tests. MatTek's MelanoDerm™ System consists of normal, human-derived epidermal keratinocytes (NHEK) and melanocytes (NHM) which have been cultured to form a multilayered, highly differentiated model of the human epidermis. Specifically, MEL-300-B tissues, each 9 mm in diameter were used in the following tests.
The test materials prepared in an appropriate vehicle and tested concentrations were applied topically to the skin model daily and the experiment lasted for 8 days. Measurement was taken on day 9.
The macroscopic and microscopic visual tissue darkening end points were measured by taking pictures with a digital camera. The Degree of Lightness for each tissue (L-Value) was measured using a spectrophotometer (Konica Minolta CM-2600d). The ΔL (degree of lightness as compared to control) for each test sample is calculated as per following formula:
ΔL=L-value of treated sample−L-value of control sample.

[3] = test system: skin epidermal tissues (MelanoDerm); test: Cell Viability Test (MTT) on skin epidermal tissues; type: cell-based, human; conditions: at tested concentrations; ≧30% reduction of cell viability = significant
Protocol: Cell Viability of the tissue during experiment was evaluated using the MTT assay described as follows. The MTT Tissue Viability Assay is a colorimetric assay system that measures the reduction of a yellow Methylthiazolyldiphenyl-tetrazolium bromide (MTT) into an insoluble purple product by the mitochondria of viable cells. The skin epidermal tissues used previously to determine degree of lightness for each test material and of untreated tissues were used to determine percent viable cells remaining at the end of the experiment. The skin epidermal tissues after degree of lightness test were incubated with MTT reagent for 3 h. After incubation extraction buffer is added to lyse the cells and allowed to continue overnight. Samples are read using a plate reader at a wavelength of 570 nm and compared against untreated control and expressed in % Cell Viability as of control. A reduction of ≧30% cell viability as of control consider as a significant indication of cell cytotoxicity caused by the test materials. The amount of purple color produced is directly proportional to the number of viable cells.
Cytotoxicity potential was determined by MTT assay for all extracts and calculated as % reduction of cell viability as compared to control, wherein >30% reduction of cell viability constitute significant cytotoxicity issues.

IC50 [1]: 148 µg/mL (≈ 400 µM)
SMILES: OC12COC(c3ccc4c(c3)OCO4)C1COC2c1ccc2c(c1)OCO2 (centres unmarked) [Paulownin]
Degree of Lightness (ΔL) ([2]; Conc. 0.5%): 0.69
Degree of Lightness (ΔL) ([2]; Conc. 1%): 1.52
Degree of Lightness (ΔL) ([2]; Conc. 2%): 2.79
Cytotoxicity potential by MTT assay [3]: did not show any significant cytotoxicity
